Assays:
[1] = tested on: conscious rats; experiment: Acute infusion of ANG II during chronic infusion of purified porcine RLX; type: in vivo, rat; settings: for ERPF / ERVR / GFR / MAP: RLX 4 μg/h s.c. day 5
Method: At least 7 days after the implantation of vascular and bladder catheters, osmotic minipumps containing either porcine RLX (4 μg/hour) or vehicle (Ringer's solution) were implanted in intact, female rats (n=7 and 6 rats, respectively). Renal function and MAP were measured on day 5 of relaxin infusion (three 30-minute urine and midpoint blood collections). Next, an infusion of L-NAME (2 μg/minute, a substrate competitive inhibitor of NO synthase) was administered intravenously (i.v.) by infusion pump (Model 200, KD Scientific, Boston, Mass.). Four 1-hour urine collections with midpoint blood samples were collected for the assessment of GFR, ERPF, and ERVR during the L-NAME administration. Identical procedures were performed on additional animals chronically administered porcine RLX (n=5) or vehicle (n=5), except that ANG II (3 ng/minute) was infused rather than L-NAME. Finally, another four, age-matched control rats were administered Ringer's solution instead of either L-NAME or ANG II on day 5 of porcine RLX infusion.
To minimize the possibility that the convergence of renal function in the relaxin and vehicle infused rats elicited by L-NAME was merely a consequence of nonspecific renal vasoconstriction, the experimental paradigm was repeated using another vasoconstrictor, ANG II. Values are provided as mean±SEM. Relaxin, RLX; Angiotensin II, ANG II. ANG II was infused at 3 ng/min i.v., and RLX at 4 μg/h by osmotic minipump s.c. There were five rats each in the RLX and vehicle groups. *p<0.05 vs baseline, Hp<0.05 RLX vs vehicle.

[2] = Serum rhRLX, quantitative sandwich immunoassay (Example 1); type: in vivo, rat; settings: osmotic minipump 4 μg/hour for 5 days, 17 rats, mean±SEM
Method: One milliliter of blood was obtained from the rats administered rhRLX for 5 days at the end of the renal function measurements. The levels of rhRLX in serum were then measured in a quantitative sandwich immunoassay. Unemori et al. (1996) J. Clin. Invest. 98:2739-2745. Briefly, wells of a 96-well microtiter plate (Maxisorp Immunomodules, Nunc, Inc., Naperville, Ill.) were coated overnight with affinity purified anti-rhRLX rabbit polyclonal antibody. Sera were diluted in phosphate buffered saline containing Tween 20, Thimerosal, bovine serum albumin (Sigma Chemical Co., St. Louis, Mo.) and normal goat IgG (Organon Teknika-Cappel, Durham, N.C.), and 100 μl were added to wells in duplicate. […] After an appropriate incubation period at room temperature, the wells were washed again, and 100 μl of a tetramethylbenzidine solution was added to each well. After color development, the reaction was stopped, absorbances at 450/630 nm were measured, and relaxin concentrations in the sera were determined by entering data into a four-parameter logistic curve-fitting program.

[3] = tested on: small renal arteries; experiment: Myogenic reactivity of isolated small renal arteries, pressurized arteriograph; type: in vivo, rat; settings: female rats administered rhRLX for 5 days (FIG. 14)
Text: Myogenic reactivity is a dynamic and complex integrative vascular behavior which can be assessed in small renal arteries utilizing the pressurized arteriograph. Equivalent tone was first established in all vessels by constricting them to 75% of their baseline diameter at 60 mm Hg using the adrenergic agonist, phenylephrine. Next the arteries which began at an initial pressure of 20 mm Hg were subjected to a rapid increase in transmural pressure of 20 mm Hg increments in the absence of flow. […] This blunted myogenic reactivity following rhRLX treatment of nonpregnant rats mimics pregnancy (Gandley RE, Conrad KP, McLaughlin MK. Am J Physiol Integrative Comp Physiol 280:R1-R7, 2001). Morever, as during pregnancy, this blunted myogenic reactivity can be reversed by adding inhibitors of nitric oxide to the vessel bath.

[4] = tested on: female Swiss Webster mice; experiment: Matrigel assay of angiogenesis; type: in vivo, mouse; settings: 100 ng/ml in Matrigel, s.c., three separate studies, vs vehicle
Method: Animals were purchased from Harlan Sprague Dawley (Indianapolis, Ind.) and were housed according to NIH guidelines. Protocols were in compliance with institutional guidelines. Matrigel (Collaborative Biomedical, Bedford, Mass.) was mixed with relaxin to a final concentration of 100 ng/ml, or mixed with the identical volume of citrate buffer, on ice. […] was injected subcutaneously into the flank of female Swiss Webster mice. At 11 days, the Matrigel plugs were harvested, fixed, and stained with H & E (hematoxylin and eosin) for assessment of new blood vessel ingrowth. Vessel growth was scored on a 0-5 scale: 0=no infiltration; 1=minor infiltration; 2 =3-5 cell layers infiltrating only margins of the plug; 3=5-10 cell layers infiltrating margins with some areas of deeper infiltration; <25% of plug infiltrated; 4=Many areas of deep cellular infiltration; 25-50% of plug infiltrated; 5=50-100% of plug infiltrated. Endothelial cells preferentially migrate into the basement membrane matrix.
The ability of relaxin to induce new blood vessel growth in vivo was tested in the murine Matrigel system for assessing angiogenesis. Passaniti et al. (1992) Lab. Invest. 67:519-528. […] At 10 days, Matrigel plugs were harvested, processed for histology, and H & E sections scored for vessel ingrowth in blinded fashion. […]

## Porcine RLX: lyophilized, purified porcine relaxin (Sherwood and O'Byrne 1974), dissolved in Ringer's solution
[1]; ANG II 3 ng/min i.v., 60 min
  ERPF: 8926
  ERVR: 8.88
  GFR: 2980
  MAP: 130
[1]; ANG II 3 ng/min i.v., 120 min
  ERPF: 9646
  ERVR: 9.24
  GFR: 2653
  MAP: 142
[1]; ANG II 3 ng/min i.v., 180 min
  ERPF: 7738
  ERVR: 11.52
  GFR: 2578
  MAP: 143
[1]; ANG II 3 ng/min i.v., 240 min
  ERPF: 7698
  ERVR: 11.84
  GFR: 2763
  MAP: 146
[1]; Baseline before ANG II
  ERPF: 10364
  ERVR: 6.23
  GFR: 2929
  MAP: 111
[1]; RLX treated vs vehicle infused rats
  percent increase in MAP and reduction in GFR elicited by ANG II: comparable
[1]; chronic relaxin vs vehicle
  percent increase in ERVR and reduction in ERPF elicited by ANG II: markedly attenuated

## rhRLX: recombinant human relaxin, identical in amino acid sequence to the product of the human H2 gene; A chain of 24, B chain of 29 amino acids
[2]
  serum concentration of rhRLX: 28.1 ± 4.8 ng/mL
[3]
  myogenic reactivity ex vivo: reduced myogenic reactivity
[4]
  vessel ingrowth into Matrigel plugs: significantly more vessel ingrowth

— patent US6723702B2, “Use of relaxin treat diseases related to vasoconstriction” (RAS Medical, Inc., priority 2000, dated 2004)
